Experimental findings from patent US20250312462A1, “PAK1 DEGRADERS AND METHODS OF USE THEREOF” (INSTITUTE FOR CANCER RESEARCH D/B/A THE RESEARCH INSTITUTE …, priority 2022, published 2025) are described below.

Experiment [1] deals with PAK1 (Homo sapiens, UniProt Q13153). Description: Z'-LYTE FRET kinase inhibition assay. Details: human recombinant PAK1 (kinase domain); purchased Invitrogen PV2830. The experiment is classed as biochemical. How it is done: The activity/inhibition of human recombinant PAK1 (kinase domain) or PAK2 (full length) was determined by measuring the phosphorylation of a FRET peptide substrate (Ser/Thr19) labeled with Coumarin and Fluorescein using Z′-LYTE™ assay (Invitrogen). The 10 μL assay mixtures contained 50 mM HEPES (pH 7.5), 0.01% Brij-35, 10 mM MgCl2, 1 mM EGTA, 2 μM FRET peptide substrate, and PAK enzyme (20 pM PAK1; 50 pM PAK2). Incubations were carried out at 22° C. in black polypropylene 384-well plates (Corning Costar). […] Following the 60-minute incubation, the assay mixtures were quenched by the addition of 5 μL of Z′-LYTE™ development reagent, and 1 hour later the emissions of Coumarin (445 nm) and Fluorescein (520 nm) were determined after excitation at 400 nm using an Envision plate reader (Perkin Elmer).

Experiment [2] addresses PAK2 (Homo sapiens, UniProt Q13177). The experiment can be described thus: KINOMEscan. To be noted: read-out: Percent Control.
Description: (§1) The kinase engagement assay (KINOMEscan®) was performed by DiscoverX assessing binding abilities toward a set of kinases.
The target in experiment [3] is ARK5 (Homo sapiens, UniProt O60285). Description: KINOMEscan. The following applies: read-out: Percent Control.
Description: as §1
The target of experiment [4] is CAMK2D (Homo sapiens, UniProt Q13557). The experiment can be described thus: KINOMEscan. To be noted: read-out: Percent Control.
Description: as §1
Experiment [5] concerns the target IKK-alpha (Homo sapiens, UniProt O15111). The experiment can be described thus: KINOMEscan. To be noted: read-out: Percent Control.
Description: as §1
Experiment [6] relates to MEK1 at S298. Description: MEK phosphorylation in OVCAR3 and MCF7 cells, immunoblot. The experiment is classed as cell-based. To be noted: 10 nM, 24 hours. The procedure: FIG. 3A is a series of Western blots showing OVCAR3 and MCF7 cells that were treated for 24 hours with DMSO, 10 nM BJG-05-039, or NVS-PAK1-1 as indicated. MEK and ERK phosphorylation was assessed by immunoblot with the indicated phosphorylation-specific antibodies. FIG. 3B is a Western blot showing MCF7 cells that were stably transduced with a doxycycline-regulated shRNA against PAK1. shRNA expression was induced by the indicated amounts of doxycycline and immunoblots were performed using cell lysates 24 hours post doxycycline addition. FIG. 3C is a Western blot showing MCF7 cells that were treated with vehicle or […] doxycycline. Immunoblots were performed using cell lysates 24 hours post doxycycline addition.
Cells were washed once in PBS and lysed in RIPA buffer (50 mM Tris-HCl, 150 mM NaCl, 0.25% (w/v) sodium deoxycholate, 1% (w/v) NP-40, pH 7.5) containing protease inhibitor cocktail (Roche) and phosphatase inhibitor cocktail (Roche) for 30 minutes on ice. […]
In certain cell lines, PAK1 has well-characterized functions in regulating proliferative signaling. […] As a readout for anti-PAK activity, phosphorylation of MEK1 at S298 was assessed, a direct target site for Group A PAKs (Coles, et al. (2002) Oncogene 21:2236-2244; Slack-Davis, et al. (2003) J. Cell. Biol., 162:281-291), as well as phosphorylation of the downstream target of MEK, ERK. […]
(In general: Immunoblotting shows a protein as a band on a membrane.)

The target in experiment [7] is NEK2 (Homo sapiens, UniProt P51955). The experiment can be described thus: KINOMEscan. To be noted: read-out: Percent Control.
Description: as §1
For experiment [8], the target named is BTK (Homo sapiens, UniProt Q06187). The experiment can be described thus: KINOMEscan. The following applies: read-out: Percent Control.
Description: as §1
Experiment [9] has as its target PRKG2 (Homo sapiens, UniProt Q13237). The experiment can be described thus: KINOMEscan. The following applies: read-out: Percent Control.
Description: as §1
The target of experiment [10] is PRKCD (Homo sapiens, UniProt Q05655). Description: KINOMEscan. To be noted: read-out: Percent Control.
Description: as §1
Experiment [11] has as its target CDK8 (Homo sapiens, UniProt P49336). The experiment can be described thus: KINOMEscan. To be noted: read-out: Percent Control.
Description: as §1
In experiment [12] the target is JAK2(JH1domain-catalytic) (Homo sapiens, UniProt O60674). The experiment can be described thus: KINOMEscan. To be noted: read-out: Percent Control.
Description: as §1
In experiment [13] the target is ANKK1 (Homo sapiens, UniProt Q8NFD2). The experiment can be described thus: KINOMEscan. The following applies: read-out: Percent Control.
Description: as §1
Experiment [14] has as its target MAP4K4 (Homo sapiens, UniProt O95819). Description: KINOMEscan. The following applies: read-out: Percent Control.
Description: as §1
The target in experiment [15] is KIT(A829P) (Homo sapiens, UniProt P10721, A829P). Description: KINOMEscan. To be noted: read-out: Percent Control.
Description: as §1
Experiment [16] deals with BRSK1 (Homo sapiens, UniProt Q8TDC3). Description: KINOMEscan. The following applies: read-out: Percent Control.
Description: as §1
Experiment [17] concerns the target VRK2 (Homo sapiens, UniProt Q86Y07). Description: KINOMEscan. To be noted: read-out: Percent Control.
Description: as §1
Experiment [18] deals with SGK2 (Homo sapiens, UniProt Q9HBY8). Description: KINOMEscan. The following applies: read-out: Percent Control.
Description: as §1
The target in experiment [19] is WEE2 (Homo sapiens, UniProt P0C1S8). Description: KINOMEscan. To be noted: read-out: Percent Control.
Description: as §1
Experiment [20] deals with ULK3 (Homo sapiens, UniProt Q6PHR2). The experiment can be described thus: KINOMEscan. To be noted: read-out: Percent Control.
Description: as §1
The target of experiment [21] is PRKCQ (Homo sapiens, UniProt Q04759). The experiment can be described thus: KINOMEscan. The following applies: read-out: Percent Control.
PRKCQ, sequence (Q04759 whole entry): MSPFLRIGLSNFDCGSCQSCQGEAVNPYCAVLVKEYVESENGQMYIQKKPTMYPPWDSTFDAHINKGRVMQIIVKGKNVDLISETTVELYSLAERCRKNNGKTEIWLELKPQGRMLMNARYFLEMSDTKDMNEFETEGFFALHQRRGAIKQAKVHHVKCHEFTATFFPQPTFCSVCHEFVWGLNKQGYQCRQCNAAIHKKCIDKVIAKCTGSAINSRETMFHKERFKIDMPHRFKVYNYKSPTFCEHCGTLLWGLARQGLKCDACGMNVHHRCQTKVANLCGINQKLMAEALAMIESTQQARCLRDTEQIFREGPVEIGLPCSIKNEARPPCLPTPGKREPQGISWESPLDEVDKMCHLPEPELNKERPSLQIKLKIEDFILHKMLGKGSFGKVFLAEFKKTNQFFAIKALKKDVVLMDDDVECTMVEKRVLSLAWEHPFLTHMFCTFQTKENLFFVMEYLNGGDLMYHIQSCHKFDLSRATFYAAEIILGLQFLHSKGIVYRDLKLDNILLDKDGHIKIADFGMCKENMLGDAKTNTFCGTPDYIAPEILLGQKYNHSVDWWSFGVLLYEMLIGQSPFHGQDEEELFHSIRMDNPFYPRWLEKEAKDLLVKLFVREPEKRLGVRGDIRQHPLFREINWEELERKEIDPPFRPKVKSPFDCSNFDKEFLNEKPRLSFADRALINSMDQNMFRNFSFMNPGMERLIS
Description: as §1

PAK1, sequence (Q13153 270-521 limits assumed): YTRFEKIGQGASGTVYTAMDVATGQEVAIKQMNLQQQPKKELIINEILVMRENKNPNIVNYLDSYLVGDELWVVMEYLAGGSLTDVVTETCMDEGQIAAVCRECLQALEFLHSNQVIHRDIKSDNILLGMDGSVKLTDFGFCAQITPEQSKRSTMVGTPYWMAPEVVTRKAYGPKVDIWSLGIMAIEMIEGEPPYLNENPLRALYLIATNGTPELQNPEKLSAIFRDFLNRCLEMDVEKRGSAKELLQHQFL
NEK2, sequence (P51955 whole entry): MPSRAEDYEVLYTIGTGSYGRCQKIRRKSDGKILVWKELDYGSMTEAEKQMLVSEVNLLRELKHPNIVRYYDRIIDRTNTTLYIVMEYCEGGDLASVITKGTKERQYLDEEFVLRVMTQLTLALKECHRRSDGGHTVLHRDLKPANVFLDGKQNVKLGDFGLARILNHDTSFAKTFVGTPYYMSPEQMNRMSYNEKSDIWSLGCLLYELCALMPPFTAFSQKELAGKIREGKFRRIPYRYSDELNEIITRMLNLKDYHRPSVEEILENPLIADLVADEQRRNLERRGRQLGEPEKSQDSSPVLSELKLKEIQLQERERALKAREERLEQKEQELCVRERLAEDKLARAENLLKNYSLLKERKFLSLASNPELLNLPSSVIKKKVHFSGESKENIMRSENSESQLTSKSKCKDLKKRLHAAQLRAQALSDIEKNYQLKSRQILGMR
CAMK2D, sequence (Q13557 whole entry): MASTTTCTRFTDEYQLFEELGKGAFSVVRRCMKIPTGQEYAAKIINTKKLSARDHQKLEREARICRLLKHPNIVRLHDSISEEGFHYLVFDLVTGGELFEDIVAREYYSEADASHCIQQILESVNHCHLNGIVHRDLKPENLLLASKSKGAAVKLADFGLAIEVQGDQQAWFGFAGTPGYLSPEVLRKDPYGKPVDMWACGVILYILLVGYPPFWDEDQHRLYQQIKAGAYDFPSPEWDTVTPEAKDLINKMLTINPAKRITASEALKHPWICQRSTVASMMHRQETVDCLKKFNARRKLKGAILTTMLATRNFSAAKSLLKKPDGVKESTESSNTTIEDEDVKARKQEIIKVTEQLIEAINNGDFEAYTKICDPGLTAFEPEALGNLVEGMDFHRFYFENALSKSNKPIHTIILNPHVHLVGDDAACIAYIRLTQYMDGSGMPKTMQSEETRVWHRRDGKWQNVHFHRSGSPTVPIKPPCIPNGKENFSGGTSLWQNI
WEE2, sequence (P0C1S8 whole entry): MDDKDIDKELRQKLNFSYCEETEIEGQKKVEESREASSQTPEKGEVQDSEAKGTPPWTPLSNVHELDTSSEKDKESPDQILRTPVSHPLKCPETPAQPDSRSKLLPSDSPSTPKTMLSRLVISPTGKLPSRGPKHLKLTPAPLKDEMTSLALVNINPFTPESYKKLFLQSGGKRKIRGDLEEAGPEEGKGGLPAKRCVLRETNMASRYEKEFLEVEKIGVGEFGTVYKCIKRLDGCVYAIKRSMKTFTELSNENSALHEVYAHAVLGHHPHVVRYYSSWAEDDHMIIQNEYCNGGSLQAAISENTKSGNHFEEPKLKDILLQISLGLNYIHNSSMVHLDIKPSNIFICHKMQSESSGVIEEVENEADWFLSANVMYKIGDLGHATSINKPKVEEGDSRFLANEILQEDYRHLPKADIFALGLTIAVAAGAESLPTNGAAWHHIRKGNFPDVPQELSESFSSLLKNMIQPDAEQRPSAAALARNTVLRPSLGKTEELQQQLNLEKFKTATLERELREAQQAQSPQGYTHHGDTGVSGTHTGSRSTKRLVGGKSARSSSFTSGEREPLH
PRKCD, sequence (Q05655 whole entry): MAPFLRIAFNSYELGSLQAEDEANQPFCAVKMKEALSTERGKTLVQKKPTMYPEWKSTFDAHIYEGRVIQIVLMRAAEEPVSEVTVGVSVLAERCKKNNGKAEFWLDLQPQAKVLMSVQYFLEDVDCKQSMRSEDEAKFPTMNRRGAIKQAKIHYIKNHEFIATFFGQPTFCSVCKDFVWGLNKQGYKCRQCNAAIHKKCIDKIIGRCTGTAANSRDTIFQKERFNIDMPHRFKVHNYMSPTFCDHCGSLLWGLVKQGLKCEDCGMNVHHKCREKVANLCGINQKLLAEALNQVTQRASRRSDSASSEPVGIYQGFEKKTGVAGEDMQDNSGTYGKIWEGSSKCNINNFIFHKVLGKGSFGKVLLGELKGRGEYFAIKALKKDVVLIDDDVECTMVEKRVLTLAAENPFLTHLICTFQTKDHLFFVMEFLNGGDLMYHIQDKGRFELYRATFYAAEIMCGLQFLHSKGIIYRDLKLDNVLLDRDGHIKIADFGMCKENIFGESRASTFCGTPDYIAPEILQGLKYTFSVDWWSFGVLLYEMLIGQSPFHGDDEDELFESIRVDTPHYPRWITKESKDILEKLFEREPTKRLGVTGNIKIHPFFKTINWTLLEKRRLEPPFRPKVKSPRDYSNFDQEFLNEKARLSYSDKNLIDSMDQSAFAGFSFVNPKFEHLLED
CDK8, sequence (P49336 whole entry): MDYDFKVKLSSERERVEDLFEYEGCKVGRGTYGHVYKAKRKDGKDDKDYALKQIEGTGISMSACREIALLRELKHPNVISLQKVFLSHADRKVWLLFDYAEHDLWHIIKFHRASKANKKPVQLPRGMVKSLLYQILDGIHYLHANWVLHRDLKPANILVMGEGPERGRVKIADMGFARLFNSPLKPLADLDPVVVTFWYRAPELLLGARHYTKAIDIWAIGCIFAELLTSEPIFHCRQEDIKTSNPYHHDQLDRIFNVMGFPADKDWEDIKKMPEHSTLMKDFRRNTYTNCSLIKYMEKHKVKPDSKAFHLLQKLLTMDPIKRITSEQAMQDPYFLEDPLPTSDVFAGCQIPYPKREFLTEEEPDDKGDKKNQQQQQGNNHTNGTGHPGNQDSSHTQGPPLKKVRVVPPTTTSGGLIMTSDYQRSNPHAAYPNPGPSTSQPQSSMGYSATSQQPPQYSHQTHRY
KIT(A829P), sequence (P10721 26-976 A829P): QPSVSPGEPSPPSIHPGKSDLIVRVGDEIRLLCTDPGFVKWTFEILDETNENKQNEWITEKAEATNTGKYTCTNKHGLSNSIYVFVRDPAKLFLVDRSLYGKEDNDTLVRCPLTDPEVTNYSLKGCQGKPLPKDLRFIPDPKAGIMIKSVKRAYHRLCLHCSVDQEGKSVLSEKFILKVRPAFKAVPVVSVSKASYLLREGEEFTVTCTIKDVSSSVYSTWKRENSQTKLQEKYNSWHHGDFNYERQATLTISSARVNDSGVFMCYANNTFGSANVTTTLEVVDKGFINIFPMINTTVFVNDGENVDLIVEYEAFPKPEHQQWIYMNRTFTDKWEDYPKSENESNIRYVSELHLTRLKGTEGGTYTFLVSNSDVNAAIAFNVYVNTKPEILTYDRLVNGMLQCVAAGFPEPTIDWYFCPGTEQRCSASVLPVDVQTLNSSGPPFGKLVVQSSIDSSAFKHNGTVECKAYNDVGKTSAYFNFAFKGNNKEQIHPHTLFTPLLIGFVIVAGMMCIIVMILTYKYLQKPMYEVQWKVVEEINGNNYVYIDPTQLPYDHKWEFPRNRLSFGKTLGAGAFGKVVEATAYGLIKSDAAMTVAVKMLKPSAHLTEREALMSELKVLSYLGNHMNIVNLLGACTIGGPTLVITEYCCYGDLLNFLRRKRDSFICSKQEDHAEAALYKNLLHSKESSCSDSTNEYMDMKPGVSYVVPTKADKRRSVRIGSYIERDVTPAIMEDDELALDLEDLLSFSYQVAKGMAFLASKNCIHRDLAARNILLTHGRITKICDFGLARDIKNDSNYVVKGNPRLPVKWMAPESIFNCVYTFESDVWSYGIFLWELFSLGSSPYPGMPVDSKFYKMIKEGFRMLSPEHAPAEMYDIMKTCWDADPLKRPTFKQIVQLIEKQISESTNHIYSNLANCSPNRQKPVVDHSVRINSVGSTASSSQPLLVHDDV
SGK2, sequence (Q9HBY8 whole entry): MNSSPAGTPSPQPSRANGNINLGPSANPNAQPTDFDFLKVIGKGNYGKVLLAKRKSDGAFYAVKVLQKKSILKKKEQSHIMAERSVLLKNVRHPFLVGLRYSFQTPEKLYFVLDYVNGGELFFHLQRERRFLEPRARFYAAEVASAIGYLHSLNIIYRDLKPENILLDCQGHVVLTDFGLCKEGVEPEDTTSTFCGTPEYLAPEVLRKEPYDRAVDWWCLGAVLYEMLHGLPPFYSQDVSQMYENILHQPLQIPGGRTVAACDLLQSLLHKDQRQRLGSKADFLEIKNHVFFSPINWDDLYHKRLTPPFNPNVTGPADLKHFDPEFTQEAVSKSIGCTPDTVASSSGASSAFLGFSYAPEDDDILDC

As a reminder, the IC50 is the concentration needed to halve the response being measured. With `O=C1CCC(N2C(=O)c3cccc(NCCCCCCCCNC(=O)N4CC[C@H](NC5=Nc6cc(F)ccc6N(CC(F)F)c6ccc(Cl)cc65)C4)c3C2=O)C(=O)N1` (stereo partly drawn) [BJG-05-039, (3S)-3-((2-Chloro-5-(2,2-difluoroethyl)-8-fluoro-5H-dibenzo[b,e][1,4]diazepin-11-yl)amino)-N-(8-((2-(2,6-dioxopiperidin-3-yl)-1,3-dioxoisoindolin-4-yl)amino)octyl)pyrrolidine-1-carboxamide], in [1], the IC50 came out at 233 nM. Moreover, the “Increase of selectivity over PAK2 relative to NVS-PAK-1” value in experiment [1] (from Table 1) is “more than ten-fold”. In addition, the “PAK1 inhibitory activity and selectivity of conjugate” value in experiment [1] (vs PAK2 and PAK4) was “retained PAK1 inhibitory activity and selectivity”. Also, the remaining binding at 10 µM in experiment [2] worked out at 87%; in [3] it was 45%; in experiment [4], 45%; in experiment [5], 91%; in experiment [7], 52%; in experiment [8], 100%. Moreover, the remaining binding at 10 µM in experiment [9] was 100%; in experiment [10] it was 97%; in experiment [11], 80%; in experiment [12], 99%; in experiment [13] it was 87%; in [14], 45%. Also, the remaining binding at 10 µM was found to be 92% in experiment [15]; 51% in [16]; 94% in [17]; 76% in experiment [18]; 78% in experiment [19]; 92% in experiment [20]. The remaining binding at 10 µM in experiment [21] came out at 77%. The “Phosphorylation of MEK S298” value in experiment [6] is listed as “inhibited phosphorylation of MEK S298”.
